# Assay results from patent EP4643657A1, “COMPOSITIONS CONTAINING SHORT-CHAIN FATTY ACID, METHODS OF USE, AND METHODS OF MAKING THEREOF” (Velocity Life Sciences, LLC, priority 2024, dated 2025).
# Where “and” joins values, the source holds several entries; their conditions need not be identical. Equal values may be shown once. Entries after “also recorded” stand apart in the source; their conditions may differ. Read-outs that look alike come from different tables or passages of the source.
# How the values were obtained:
# [1] = given intravenously; plasma; cited from earlier work
# [2] = Visual-analog scales of affect, randomized three-arm crossover trial (Example 5); type: in vivo, human; parameters: Mood AUC / Alertness AUC / Well-being AUC / Calm and Relaxed AUC / Stressed and Anxious AUC: unit not given here
# Procedure: Experimental Design: This was a randomized, three-arm, crossover trial in which participants visited the laboratory on four occasions (one screening visit and three testing visits). […] Written informed consent was obtained from all subjects prior to enrollment. The study was retrospectively registered on clinicaltrials.gov (#NCT06700785). This study was conducted at The Center for Applied Health Sciences, a contract research organization located in Northeast Ohio. […] VAS assessed subjective ratings of state of well-being, calm and relaxed, stressed and anxious, mood, motivation to perform tasks, level of alertness, and ability to concentrate and were anchored with "Worst possible", "Lowest possible", "Strongly Disagree", or "Best Possible", "Highest Possible", "Strongly Agree". […] Statistical Analyses: Normality was assessed using Q-Q plot and Shapiro-Wilks test. Severe non-normal measures were normalized using log (In) transformation. Serum butyrate concentrations, subjective ratings of affect, and vitals over time between treatments were analyzed using a mixed effects factorial ANOVA . Tukey post hocs were applied if significant main effects/interactions were observed. […] Effect sizes are reported as Cohen's d (with 0.2 considered a small effect, 0.5 considered a medium effect, and 0.8 considered a large effect). All analyses were conducted in GraphPad Prism v.10.4.0.
# [3] = Serum butyrate pharmacokinetics, randomized three-arm crossover trial (Example 5); conditions: for Serum Butyrate: 10 healthy men, Mean ± SD; for Tmax comparison between treatments: Wilcoxon rank test; for AUC0-210 comparison between treatments / Cmax comparison between treatments: paired samples t-test
# [4] = Nootropic and related properties after oral administration (Example 3); type: in vivo, human
# Procedure: In another experiment, L-lysine butyrate in a dose range of 500 mg to 5,000 mg was administered as an aqueous solution to six individuals aged between 22 and 55 years, comprising two women and four men. […] The observed effects were dose-dependent, with larger doses of L-lysine butyrate providing greater effects and longer duration, lasting up to four hours.
# In another experiment, L-lysine butyrate in a dose of 2 g, and on a separate occasion 5 g, was administered in encapsulated form, to 2 individuals. A further individual was administered L-lysine butyrate in a dose of 2 g in encapsuled form.
# [5] = Exposure of the prepared salt to air at room temperature (hygroscopicity, storage stability); type: physicochemical; conditions: for Hygroscopicity: exposed at room temperature to air
# Source text: The L-arginine butyrate prepared using ethanol as the sole solvent was a white to off-white powder.
# The L-lysine butyrate prepared using ethanol as the sole solvent was a light, pale yellow to yellow powder. […] Table 1: Attempted preparation of salts of amino acids and amino acid derivatives of butyric acid.
# [6] = male, human, in vivo
# [7] = 0 min (prior to ingestion), 100-mm VAS, Mean±SD
# [8] = motivation to perform tasks, 0 min (prior to ingestion), 100-mm VAS, Mean±SD
# [9] = 500 mg to 5,000 mg as aqueous solution, six individuals
# [10] = seven (7) days at room temperature
# [11] = 0-210 min, 786 mg of butyric acid oral, Mean±SD
# [12] = 45 min post ingestion, 786 mg of butyric acid oral, 100-mm VAS, Mean±SD
# [13] = 90 min post ingestion, 786 mg of butyric acid oral, 100-mm VAS, Mean±SD
# [14] = 150 min post ingestion, 786 mg of butyric acid oral, 100-mm VAS, Mean±SD
# [15] = 210 min post ingestion, 786 mg of butyric acid oral, 100-mm VAS, Mean±SD
compound,measurement,setting,value
"CCCC(=O)O [Butyric Acid, butanoic acid]",half-life,[1],about six
"CCCC(=O)O [L-Lysine Butyrate, L-lysine butyrate]",Alertness,[2]; [7],6.9 ± 1.5^€
same,Calm and Relaxed,[2]; [7],7.5 ± 0.8^# cm
same,Concentration,[2]; [7],7.1 ± 1.3 cm
same,Mood,[2]; [7],7.7 ± 0.9 cm
same,Stressed and Anxious,[2]; [7],2.0 ± 1.4 cm
same,Well-being,[2]; [7],7.3 ± 0.9 cm
same,Alertness,"[2]; in vivo, po",7.2 ± 1.3 and 7.4 ± 1.2 and 7.5 ± 1.2 and 7.5 ± 1.1
same,Alertness AUC,"[2]; in vivo, po",1544 ± 249
same,Calm and Relaxed,"[2]; in vivo, po",7.7 ± 0.9^# cm and 7.6 ± 1.2 cm and 7.6 ± 1.1^# cm and 8.0 ± 0.9 cm
same,Calm and Relaxed AUC,"[2]; in vivo, po",1612 ± 207
same,Concentration,"[2]; in vivo, po",7.1 ± 1.4 cm and 7.5 ± 1.3^β cm and 7.4 ± 1.1 cm and 7.3 ± 1.6 cm
same,Concentration AUC,"[2]; in vivo, po",1532 ± 241
same,Mood,"[2]; in vivo, po",7.9 ± 0.7 cm and 7.6 ± 1.1 cm and 8.0 ± 0.7 cm and 8.0 ± 0.8 cm
same,Mood AUC,"[2]; in vivo, po",1651 ± 171
same,Perform Tasks,"[2]; in vivo, po",7.1 ± 1.3 cm and 7.4 ± 1.1 cm and 7.6 ± 1.3 cm
same,Perform Tasks AUC,"[2]; in vivo, po",1547 ± 262
same,Stressed and Anxious,"[2]; in vivo, po",2.1 ± 1.6 cm and 2.3 ± 1.7 cm and 1.8 ± 1.3 cm and 2.0 ± 1.3 cm
same,Stressed and Anxious AUC,"[2]; in vivo, po",431 ± 288
same,Well-being,"[2]; in vivo, po",7.6 ± 0.9^# cm and 7.6 ± 1.1 cm and 7.7 ± 1.0^# cm and 8.0 ± 0.9 cm
same,Well-being AUC,"[2]; in vivo, po",1610 ± 195
same,Perform Tasks,[2]; [8],6.9 ± 1.7 cm
same,Serum Butyrate,"[3]; 0 min (baseline, prior to ingestion)",0.32 ± 0.43 µg/mL
same,Serum Butyrate,"[3]; 20 min post ingestion, oral, 3 capsules delivering 786 mg of butyric acid",4.53 ± 7.56 µg/mL
same,Serum Butyrate,"[3]; 45 min post ingestion, oral, 3 capsules delivering 786 mg of butyric acid",0.77 ± 1.49 µg/mL
same,Serum Butyrate,"[3]; 90 min post ingestion, oral, 3 capsules delivering 786 mg of butyric acid",0.39 ± 0.62 µg/mL
same,Serum Butyrate,"[3]; 150 min post ingestion, oral, 3 capsules delivering 786 mg of butyric acid",0.43 ± 0.64 µg/mL
same,Serum Butyrate,"[3]; 210 min post ingestion, oral, 3 capsules delivering 786 mg of butyric acid",0.37 ± 0.55 µg/mL
same,Tmax comparison between treatments,[3]; listed as LysB,did not differ from NaB; also recorded: significantly less than TB
same,AUC0-210 comparison between treatments,[3]; listed as LysB,did not differ from NaB; also recorded: significantly greater than TB
same,Cmax comparison between treatments,[3]; listed as LysB,did not differ from NaB; also recorded: significantly greater than TB
same,Dose dependence of observed effects,"[4]; 500 mg to 5,000 mg as aqueous solution",dose-dependent
same,Effects reported by participants,[4]; [9],"more relaxed, less tired, more sociable, and able to concentrate on tasks more effectively"
same,Time to reported effects after administration,[4]; [9],thirty
same,Duration of effects,"[4]; 500 mg to 5,000 mg as aqueous solution, larger doses",up to four
same,Analgesic effect,"[4]; 2 g oral, encapsulated form, two of the individuals","analgesic effect, eliminating minor-to-moderate pain and discomfort"
same,Mental effects,"[4]; single oral administration of 2 g, encapsulated form","pleasant mental effects, including an improvement in focus, alertness, concentration, reduction in anxiety, and a general feeling of well-being"
same,Mental effects,"[4]; single oral administration of 5 g, encapsulated form","undesirable mental effects, interfering with focus and alertness, with effects similar to intoxication"
same,Appearance after exposure to air,[5]; 24 hours at room temperature,"remained a fine, free-flowing yellow powder"
same,Hygroscopicity,[5],not hygroscopic
same,Appearance after exposure to air,[5]; [10],"remained a fine, free-flowing powder with no color change"
same,Appearance after exposure to air,[5]; thirty (30) days at room temperature,"remained a fine, free-flowing powder"
"CCCC(=O)[O-].[Na+] [Sodium Butyrate, Sodium butyrate]",Alertness,[2]; [7],6.4 ± 1.2
same,Calm and Relaxed,[2]; [7],7.6 ± 0.9 cm
same,Concentration,[2]; [7],6.4 ± 1.2 cm
same,Mood,[2]; [7],7.1 ± 1.2 cm
same,Stressed and Anxious,[2]; [7],2.4 ± 1.4 cm
same,Well-being,[2]; [7],7.0 ± 1.2 cm
same,Alertness,"[2]; in vivo, po",6.5 ± 1.6 and 6.8 ± 1.3 and 6.7 ± 1.6 and 7.1 ± 1.8
same,Alertness AUC,"[2]; in vivo, po",1411 ± 293
same,Calm and Relaxed,"[2]; in vivo, po",7.3 ± 1.2 cm and 7.6 ± 1.0 cm and 7.9 ± 1.1^¥ cm and 7.9 ± 1.2 cm
same,Calm and Relaxed AUC,"[2]; in vivo, po",1608 ± 216
same,Concentration,"[2]; in vivo, po",6.4 ± 1.7 cm and 6.6 ± 1.5 cm and 6.5 ± 1.9 cm and 6.9 ± 2.1 cm
same,Concentration AUC,"[2]; in vivo, po",1371 ± 343
same,Mood,"[2]; in vivo, po",7.1 ± 1.1 cm and 7.4 ± 1.2 cm and 7.7 ± 1.0 cm and 7.8 ± 1.2 cm
same,Mood AUC,"[2]; in vivo, po",1558 ± 215
same,Perform Tasks,"[2]; in vivo, po",6.8 ± 1.6 cm and 7.1 ± 1.3 cm and 6.9 ± 1.7 cm and 7.1 ± 1.5 cm
same,Perform Tasks AUC,"[2]; in vivo, po",1452 ± 297
same,Stressed and Anxious,"[2]; in vivo, po",2.3 ± 1.5 cm and 2.3 ± 1.6 cm and 2.1 ± 1.8 cm and 2.0 ± 1.8 cm
same,Stressed and Anxious AUC,"[2]; in vivo, po",466 ± 339
same,Well-being,"[2]; in vivo, po",7.2 ± 1.2 cm and 7.3 ± 1.2 cm and 7.5 ± 1.1 cm and 7.6 ± 1.3 cm
same,Well-being AUC,"[2]; in vivo, po",1543 ± 242
same,Perform Tasks,[2]; [8],6.5 ± 1.4^£ # cm
same,Tmax comparison between treatments,[3],significantly less than TB
same,AUC0-210 comparison between treatments,[3],significantly greater than TB
same,Cmax comparison between treatments,[3],significantly greater than TB
"CCCC(=O)OCC(COC(=O)CCC)OC(=O)CCC [TB, propane-1,2,3-triyl tributanoate]",Ability to concentrate (VAS),[2]; [7],6.9 ± 1.7 cm
same,Alertness,[2]; [7],6.7 ± 1.7
same,Calm and Relaxed,[2]; [7],7.5 ± 1.2 cm
same,Mood,[2]; [7],7.1 ± 1.5^# cm
same,Stressed and Anxious,[2]; [7],2.7 ± 2.0 cm
same,Well-being,[2]; [7],7.4 ± 1.2 cm
same,Alertness AUC,[2]; [11],1481 ± 293
same,Calm and Relaxed AUC,[2]; [11],1571 ± 245
same,Concentration AUC,[2]; [11],1504 ± 315
same,Mood AUC,[2]; [11],1600 ± 214
same,Well-being AUC,[2]; [11],1588 ± 234
same,Stressed and Anxious AUC,"[2]; 0-210 min, 786 mg of butyric acid oral, Mean±SD, raw untransformed data",518 ± 408
same,Ability to concentrate (VAS),[2]; [12],7.1 ± 1.6 cm
same,Alertness,[2]; [12],7.0 ± 1.5
same,Calm and Relaxed,[2]; [12],7.2 ± 1.4 cm
same,Mood,[2]; [12],7.5 ± 1.1^# cm
same,Stressed and Anxious,[2]; [12],2.7 ± 2.2 cm
same,Well-being,[2]; [12],7.6 ± 1.1 cm
same,Ability to concentrate (VAS),[2]; [13],6.9 ± 1.6 cm
same,Alertness,[2]; [13],6.9 ± 1.4
same,Calm and Relaxed,[2]; [13],7.5 ± 1.3 cm
same,Mood,[2]; [13],7.6 ± 1.0^# cm
same,Stressed and Anxious,[2]; [13],2.4 ± 1.9 cm
same,Well-being,[2]; [13],7.6 ± 1.2 cm
same,Alertness,[2]; [14],7.1 ± 1.6^#
same,Calm and Relaxed,[2]; [14],7.5 ± 1.2 cm
same,Concentration,[2]; [14],7.4 ± 1.4^α cm
same,Mood,[2]; [14],7.7 ± 1.0 cm
same,Stressed and Anxious,[2]; [14],2.4 ± 2.0 cm
same,Well-being,[2]; [14],7.5 ± 1.1 cm
same,Ability to concentrate (VAS),[2]; [15],7.5 ± 1.6 cm
same,Alertness,[2]; [15],7.5 ± 1.5
same,Calm and Relaxed,[2]; [15],7.9 ± 1.2 cm
same,Mood,[2]; [15],8.0 ± 1.0 cm
same,Stressed and Anxious,[2]; [15],2.3 ± 2.2 cm
same,Well-being,[2]; [15],7.8 ± 1.2 cm
same,Perform Tasks,[2]; [8],6.9 ± 1.6 cm
same,Perform Tasks AUC,"[2]; motivation to perform tasks, 0-210 min, 786 mg of butyric acid oral, Mean±SD",1505 ± 331
same,Perform Tasks,"[2]; motivation to perform tasks, 45 min post ingestion, 786 mg of butyric acid oral, 100-mm VAS, Mean±SD",7.2 ± 1.3 cm
same,Perform Tasks,"[2]; motivation to perform tasks, 90 min post ingestion, 786 mg of butyric acid oral, 100-mm VAS, Mean±SD",7.1 ± 1.7 cm
same,Perform Tasks,"[2]; motivation to perform tasks, 150 min post ingestion, 786 mg of butyric acid oral, 100-mm VAS, Mean±SD",7.2 ± 1.8 cm
same,Perform Tasks,"[2]; motivation to perform tasks, 210 min post ingestion, 786 mg of butyric acid oral, 100-mm VAS, Mean±SD",7.3 ± 1.9 cm
same,Serum Butyrate,[6]; 0 min,0.41 ± 0.71 µg/mL
same,Serum Butyrate AUC0-210,"[6]; po, 786 mg",108 ± 190
same,Serum Butyrate Cmax,"[6]; po, 786 mg",0.91 ± 1.65 µg/mL
L-arginine butyrate,Appearance after exposure to air,[5]; 24 hours at room temperature,"formed hard, rock-like clumps"
same,Hygroscopicity,[5],quite hygroscopic
same,Appearance after exposure to air,[5]; [10],"significantly hydrated into, large solid masses"
